Test results reported in US20110136792A1, “NOVEL CARBOXYLIC ACID ANALOGS AS GLYCOGEN SYNTHASE ACTIVATORS” (priority 2009, published 2011).

System: glycogen synthase
Assay: Glycogen Synthase (GS) Assay
Assay type: biochemical
Conditions: coupled pyruvate kinase/lactate dehydrogenase assay, absorbance at 340 nm; for EC50: compound concentration needed to give 50% maximum activation; for GS SC200: compound concentration needed to stimulate 200% of the enzyme activity
Procedure: The following tests were carried out in order to determine the activity of the compounds of formula (I).
Twelve μL per well of substrate solution containing glycogen (4.32 mg/ml), 2.67 mM UDP-glucose, 21.6 mM phospho(enol)pyruvate and 2.7 mM NADH in 30 mM glycylglycine, pH 7.3 buffer was added into a polystyrene 384-well assay plate (BD Biosciences).
Compound solutions (8 μL/well) at various concentrations (0-300 μM) were added to the assay plate (columns 5-24). Compound solution contains 30 mM glycylglycine, pH 7.3, 40 mM KCl, 20 mM MgCl2, 9.2% DMSO, with (columns 15-24) or without (columns 5-14) 20 mM glucose 6-phosphate.
Enzyme solution (12 μL/well) containing glycogen synthase (16.88 μg/ml), pyruvate kinase (0.27 mg/ml), lactate dehydrogenase (0.27 mg/ml) in 50 mM Tris-HCl, pH 8.0, 27 mM DTT and bovine serum albumin (BSA, 0.2 mg/ml) was added to the assay plate (columns 3-24). As a blank control, enzyme solution without glycogen synthase was added into the top half wells of columns 1-2. To the bottom half wells of columns 1-2 were added a known activator, glucose 6-phosphate (at final concentration 5 mM) in addition to the enzyme solution. The reaction mixture was incubated at room temperature. The assay plate was then read for absorbance at 340 nm on an Envision reader every 3 minutes up to a total of 15 minutes.
The enzyme activity (with or without compound) was calculated by the reaction rate and represented by the optical density change (δOD) per minute. Percent stimulation of glycogen synthase activity by a compound at various concentrations was calculated by the following formula: […]
Where Rs is the reaction rate of the enzyme in the presence of compound and Rt is the reaction rate of the enzyme in the absence of compound.
SC200 is defined as the compound concentration that is needed to stimulate 200% of the enzyme activity. EC50 is defined as the compound concentration that is needed to give 50% maximum activation.
Compounds from Examples 1 through Example 64 were assayed according to assay procedures described above and the result is listed in Table 1 below: […]

EC50 | Compound | GS SC200
410 nM | COCC(=O)N(CC(=O)O)Cc1cccc(COc2ccc(-c3cc(F)c(F)cc3OC)cc2)c1 [Example 28, [[3-(4′,5′-Difluoro-2′-methoxy-biphenyl-4-yloxymethyl)-benzyl]-(2-methoxy-acetyl)-amino]-acetic acid] | 0.06 µM
1170 nM | COc1cc(F)c(F)cc1-c1ccc(OCc2nc(CN3[C@@H](C(=O)O)CCS3(=O)=O)cs2)cc1 [Example 61, (R)-2-[2-(4′,5′-Difluoro-2′-methoxy-biphenyl-4-yloxymethyl)-thiazol-4-ylmethyl]-1,1-dioxo-1lambda*6*-isothiazolidine-3-carboxylic acid] | 0.78 µM
110 nM | COc1cc(F)c(F)cc1-c1ccc(OCc2cccc(CN3[C@H](C(=O)O)CCCS3(=O)=O)c2)cc1 [Example 56, (S)-2-[3-(4′,5′-Difluoro-2′-methoxy-biphenyl-4-yloxymethyl)-benzyl]-1,1-dioxo-1lambda*6*-[1,2]thiazinane-3-carboxylic acid] | 0.04 µM
470 nM | COc1cc(F)c(F)cc1-c1ccc(OCc2cccc(CN(CC(=O)O)C(=O)c3cccnc3)c2)cc1 [Example 30, [[3-(4′,5′-difluoro-2′-methoxy-biphenyl-4-yloxymethyl)-benzyl]-(pyridine-3-carbonyl)-amino]-acetic acid] | 0.04 µM
910 nM | COc1cc(F)c(F)cc1-c1ccc(OCc2cccc(CN(CC(=O)O)S(=O)(=O)c3ccccc3)c2)cc1 [Example 8, {Benzenesulfonyl-[3-(4′,5′-difluoro-2′-methoxy-biphenyl-4-yloxymethyl)-benzyl]-amino}-acetic acid] | 0.17 µM
200 nM | O=C(O)C1CCS(=O)(=O)N1Cc1cccc(COc2ccc(-c3cc(F)c(F)cc3Cl)cc2)c1 (racemic) [Example 40, 2-[3-(2′-Chloro-4′,5′-difluoro-biphenyl-4-yloxymethyl)-benzyl]-1,1-dioxo-1lambda*6*-isothiazolidine-3-carboxylic acid] | 0.04 µM
380 nM | COc1cc(F)c(F)cc1-c1ccc(OCc2cccc(CN3[C@@H](C(=O)O)CCS3(=O)=O)c2)cc1 [Example 44, (R)-2-[3-(4′,5′-Difluoro-2′-methoxy-biphenyl-4-yloxymethyl)-benzyl]-1,1-dioxo-1lambda*6*-isothiazolidine-3-carboxylic acid] | 0.09 µM
450 nM | COc1cc(F)c(F)cc1-c1ccc(OCc2cccc(CN(CC(=O)O)C(=O)c3ccccc3)c2)cc1 [Example 5, {Benzoyl-[3-(4′,5′-difluoro-2′-methoxy-biphenyl-4-yloxymethyl)-benzyl]-amino}-acetic acid] | 0.09 µM
730 nM | COc1cc(F)c(F)cc1-c1ccc(OCc2cccc(CN(CC(=O)O)C(=O)CC3CC3)c2)cc1 [Example 24, {(2-Cyclopropyl-acetyl)-[3-(4′,5′-difluoro-2′-methoxy-biphenyl-4-yloxymethyl)-benzyl]-amino}-acetic acid] | 0.12 µM
1340 nM | COc1cc(F)c(F)cc1-c1ccc(OCc2cccc(CN(CC(=O)O)C(=O)C(C)(C)C)c2)cc1 [Example 1, [[3-(4′,5′-Difluoro-2′-methoxy-biphenyl-4-yloxymethyl)-benzyl]-(2,2-dimethyl-propionyl)-amino]-acetic acid] | 0.21 µM
160 nM | CCS(=O)(=O)N(CC(=O)O)Cc1cccc(COc2ccc(-c3cc(F)c(F)cc3F)cc2)c1 [Example 18, {Ethanesulfonyl-[3-(2′,4′,5′-trifluoro-biphenyl-4-yloxymethyl)-benzyl]-amino}-acetic acid] | 0.07 µM
350 nM | COc1cc(F)c(F)cc1-c1ccc(OCc2cccc(CN(CC(=O)O)C(=O)[C@H]3CCCO3)c2)cc1 [Example 33, [[3-(4′,5′-Difluoro-2′-methoxy-biphenyl-4-yloxymethyl)-benzyl]-((R)-tetrahydro-furan-2-carbonyl)-amino]-acetic acid] | 0.02 µM
100 nM | O=C(O)[C@@H]1CCS(=O)(=O)N1Cc1cccc(COc2ccc(-c3cc(F)c(F)cc3Cl)cc2)c1 [Example 51, (S)-2-[3-(2′-Chloro-4′,5′-difluoro-biphenyl-4-yloxymethyl)-benzyl]-1,1-dioxo-1lambda*6*-isothiazolidine-3-carboxylic acid] | 0.03 µM
130 nM | O=C(O)[C@@H]1CCC(=O)N1Cc1cccc(COc2ccc(-c3cc(F)c(F)cc3F)cc2)c1 [Example 53, (S)-5-Oxo-1-[3-(2′,4′,5′-trifluoro-biphenyl-4-yloxymethyl)-benzyl]-pyrrolidine-2-carboxylic acid] | 0.03 µM
690 nM | COc1cc(F)c(F)cc1-c1ccc(OCc2cccc(CN(CC(=O)O)C(=O)N3CCOCC3)c2)cc1 [Example 3, [[3-(4′,5′-Difluoro-2′-methoxy-biphenyl-4-yloxymethyl)-benzyl]-(morpholine-4-carbonyl)-amino]-acetic acid] | 0.11 µM
290 nM | COc1cc(F)c(F)cc1-c1ccc(OCc2cccc(CN(CC(=O)O)S(C)(=O)=O)c2)cc1 [Example 10, {[3-(4′,5′-Difluoro-2′-methoxy-biphenyl-4-yloxymethyl)-benzyl]-methanesulfonyl-amino}-acetic acid] | 0.03 µM
890 nM | Cc1cc(F)c(F)cc1-c1ccc(OCc2cccc(CN3[C@@H](C(=O)O)CCS3(=O)=O)c2)cc1 [Example 49, (R)-2-[3-(4′,5′-Difluoro-2′-methyl-biphenyl-4-yloxymethyl)-benzyl]-1,1-dioxo-1lambda*6*-isothiazolidine-3-carboxylic acid] | 0.35 µM
1930 nM | CCN(CC(=O)O)Cc1cccc(COc2ccc(-c3cc(F)c(F)cc3OC)cc2)c1 [Example 36, {[3-(4′,5′-Difluoro-2′-methoxy-biphenyl-4-yloxymethyl)-benzyl]-ethyl-amino}-acetic acid] | 0.50 µM
130 nM | O=C(O)C1CCS(=O)(=O)N1Cc1cccc(COc2ccc(-c3cc(F)c(F)cc3F)cc2)c1 (racemic) [Example 38, 1,1-Dioxo-2-[3-(2′,4′,5′-trifluoro-biphenyl-4-yloxymethyl)-benzyl]-1lambda*6*-isothiazolidine-3-carboxylic acid] | 0.05 µM
720 nM | COc1cc(F)c(F)cc1-c1ccc(OCc2cccc(CN(CC(=O)O)C(=O)C3CCC3)c2)cc1 [Example 4, {Cyclobutanecarbonyl-[3-(4′,5′-difluoro-2′-methoxy-biphenyl-4-yloxymethyl)-benzyl]-amino}-acetic acid] | 0.18 µM
1460 nM | COc1cc(F)c(F)cc1-c1ccc(OCc2cccc(CN(CC(=O)O)Cc3ccccc3)c2)cc1 [Example 35, {Benzyl-[3-(4′,5′-difluoro-2′-methoxy-biphenyl-4-yloxymethyl)-benzyl]-amino}-acetic acid] | 0.46 µM
930 nM | O=C(O)CN(Cc1cccc(COc2ccc(-c3ccc(F)cc3F)cc2)c1)C(=O)N1CCOCC1 [Example 13, [[3-(2′,4′-Difluoro-biphenyl-4-yloxymethyl)-benzyl]-(morpholine-4-carbonyl)-amino]-acetic acid] | 0.10 µM
310 nM | CCS(=O)(=O)N(CC(=O)O)Cc1cccc(COc2ccc(-c3cc(F)c(F)cc3OC)cc2)c1 [Example 7, {[3-(4′,5′-Difluoro-2′-methoxy-biphenyl-4-yloxymethyl)-benzyl]-ethanesulfonyl-amino}-acetic acid] | 0.04 µM
280 nM | COc1cc(F)c(F)cc1-c1ccc(OCc2cccc(CN(CC(=O)O)C(=O)C3CCOC3)c2)cc1 (centres unmarked) [Example 34, [[3-(4′,5′-Difluoro-2′-methoxy-biphenyl-4-yloxymethyl)-benzyl]-(tetrahydro-furan-3-carbonyl)-amino]-acetic acid] | 0.04 µM
2190 nM | O=C(O)[C@@H]1CCS(=O)(=O)N1Cc1csc(COc2ccc(-c3cc(F)c(F)cc3F)cc2)n1 [Example 60, (S)-1,1-Dioxo-2-[2-(2′,4′,5′-trifluoro-biphenyl-4-yloxymethyl)-thiazol-4-ylmethyl]-1lambda*6*-isothiazolidine-3-carboxylic acid] | 1.74 µM
